Species: Rattus norvegicus
Test: Open TG-GATES - Regimen: Daily Repeat
Format: toxicity, organism-based, Sprague-Dawley
Design: regimen Daily Repeat, gender Male, age 6 weeks
Conditions: in vivo, po, 0 mg/kg, route gavage, dose level Control; for APTT / Bas / Eos / Fbg / Hb / Ht / Lym / MCH / MCHC / MCV / Mono / Neu / PT / Plat / RBC / Ret / WBC: tissue Blood; for KIDNEY_L / KIDNEY_R / KIDNEY_TOTAL: tissue Kidney; for LIVER: tissue Liver; for A/G / ALP / ALT / AST / BUN / CRE / Ca / Cl / DBIL / GLC / IP / K / LDH / Na / PL / RALB / TBIL / TC / TG / TP / gamma-GTP: tissue Plasma

O=C(O)c1cc(/N=N/c2ccc(S(=O)(=O)Nc3ccccn3)cc2)ccc1O [SULFASALAZINE] gave a TERMINAL_BW (72 h, time 3 day) of 237.4 g, an APTT (72 h, time 3 day) of 18.3 s and a Bas (72 h, time 3 day) of 0%. For the same compound, the Eos (72 h, time 3 day) was 1%, the Fbg (72 h, time 3 day) was 245.4 mg/dL and the Hb (72 h, time 3 day) was 13.3 g/dL. For the same compound, the Ht (72 h, time 3 day) was 38.5%, the Lym (72 h, time 3 day) was 78.2% and the MCH (72 h, time 3 day) was 22 pg. It also gave an MCHC (72 h, time 3 day) of 34.7%, an MCV (72 h, time 3 day) of 63.5 fL and a Mono (72 h, time 3 day) of 3%. It also gave a Neu (72 h, time 3 day) of 16.8%, a PT (72 h, time 3 day) of 12.4 s and a Plat (72 h, time 3 day) of 125.9 x10_4/uL. The RBC (72 h, time 3 day) was 607.8 x10_4/ul, the Ret (72 h, time 3 day) was 6.3% and the WBC (72 h, time 3 day) was 93.4 x10_2/uL. The KIDNEY_L (72 h, time 3 day) was 1 g, the KIDNEY_R (72 h, time 3 day) was 1 g and the KIDNEY_TOTAL (72 h, time 3 day) was 2 g. It also gave an LIVER (72 h, time 3 day) of 11.2 g, an A/G (72 h, time 3 day) of 1.4 and an ALP (72 h, time 3 day) of 938.8 IU/L. It also gave an ALT (72 h, time 3 day) of 39.8 IU/L, an AST (72 h, time 3 day) of 74.2 IU/L and a BUN (72 h, time 3 day) of 16.6 mg/dL. The CRE (72 h, time 3 day) was 0.4 mg/dL, the Ca (72 h, time 3 day) was 11 mg/dL and the Cl (72 h, time 3 day) was 102.6 meq/L. For the same compound, the DBIL (72 h, time 3 day) was 0.1 mg/dL, the GLC (72 h, time 3 day) was 207.4 mg/dL and the IP (72 h, time 3 day) was 7.3 mg/dL. The K (72 h, time 3 day) was 4 meq/L, the LDH (72 h, time 3 day) was 226.6 IU/L and the Na (72 h, time 3 day) was 140.6 meq/L. It also gave a PL (72 h, time 3 day) of 157 mg/dL, an RALB (72 h, time 3 day) of 3.4 g/dL and a TBIL (72 h, time 3 day) of 0.2 mg/dL. For the same compound, the TC (72 h, time 3 day) was 75.6 mg/dL, the TG (72 h, time 3 day) was 104 mg/dL and the TP (72 h, time 3 day) was 5.7 g/dL. The gamma-GTP (72 h, time 3 day) was 1.2 IU/L, the TERMINAL_BW ([…], time 7 day) was 263.5 g and the TERMINAL_BW ([…], time 14 day) was 308.2 g. The TERMINAL_BW ([…], time 28 day) was 377.2 g, the APTT ([…], time 7 day) was 19.2 s and the Bas ([…], time 7 day) was 0%. It also gave an Eos ([…], time 7 day) of 1%, a Fbg ([…], time 7 day) of 223.4 mg/dL and a Hb ([…], time 7 day) of 14.1 g/dL. The Ht ([…], time 7 day) was 41.1%, the Lym ([…], time 7 day) was 81.6% and the MCH ([…], time 7 day) was 21.5 pg. The MCHC ([…], time 7 day) was 34.2%, the MCV ([…], time 7 day) was 62.8 fL and the Mono ([…], time 7 day) was 2.6%. For the same compound, the Neu ([…], time 7 day) was 14.2%, the PT ([…], time 7 day) was 12.3 s and the Plat ([…], time 7 day) was 129.3 x10_4/uL. For the same compound, the RBC ([…], time 7 day) was 655 x10_4/ul, the Ret ([…], time 7 day) was 5.5% and the WBC ([…], time 7 day) was 126 x10_2/uL. The APTT ([…], time 14 day) was 19.7 s, the Bas ([…], time 14 day) was 0% and the Eos ([…], time 14 day) was 1%. It also gave a Fbg ([…], time 14 day) of 229.4 mg/dL, a Hb ([…], time 14 day) of 14.7 g/dL and a Ht ([…], time 14 day) of 41.7%. The Lym ([…], time 14 day) was 78.4%, the MCH ([…], time 14 day) was 20.9 pg and the MCHC ([…], time 14 day) was 35.3%. The MCV ([…], time 14 day) was 59.2 fL, the Mono ([…], time 14 day) was 2.4% and the Neu ([…], time 14 day) was 16.8%. It also gave a PT ([…], time 14 day) of 12.2 s, a Plat ([…], time 14 day) of 115.1 x10_4/uL and an RBC ([…], time 14 day) of 703.6 x10_4/ul. For the same compound, the Ret ([…], time 14 day) was 3.9%, the WBC ([…], time 14 day) was 92.7 x10_2/uL and the APTT ([…], time 28 day) was 20.6 s. It also gave a Bas ([…], time 28 day) of 0%, an Eos ([…], time 28 day) of 0.8% and a Fbg ([…], time 28 day) of 217.8 mg/dL. The Hb ([…], time 28 day) was 15.6 g/dL, the Ht ([…], time 28 day) was 43.1% and the Lym ([…], time 28 day) was 83.8%. It also gave an MCH ([…], time 28 day) of 20.1 pg, an MCHC ([…], time 28 day) of 36.2% and an MCV ([…], time 28 day) of 55.6 fL. For the same compound, the Mono ([…], time 28 day) was 1.4%, the Neu ([…], time 28 day) was 12.4% and the PT ([…], time 28 day) was 12.5 s. It also gave a Plat ([…], time 28 day) of 98.7 x10_4/uL, an RBC ([…], time 28 day) of 775.4 x10_4/ul and a Ret ([…], time 28 day) of 2.3%. The WBC ([…], time 28 day) was 97.9 x10_2/uL, the KIDNEY_L ([…], time 7 day) was 1.1 g and the KIDNEY_R ([…], time 7 day) was 1.1 g. It also gave a KIDNEY_TOTAL ([…], time 7 day) of 2.2 g, a KIDNEY_L ([…], time 14 day) of 1.2 g and a KIDNEY_R ([…], time 14 day) of 1.2 g. The KIDNEY_TOTAL ([…], time 14 day) was 2.4 g, the KIDNEY_L ([…], time 28 day) was 1.3 g and the KIDNEY_R ([…], time 28 day) was 1.3 g. It also gave a KIDNEY_TOTAL ([…], time 28 day) of 2.5 g, an LIVER ([…], time 7 day) of 12 g and an LIVER ([…], time 14 day) of 13.3 g. For the same compound, the LIVER ([…], time 28 day) was 14.8 g, the A/G ([…], time 7 day) was 1.4 and the ALP ([…], time 7 day) was 884.4 IU/L. It also gave an ALT ([…], time 7 day) of 33 IU/L, an AST ([…], time 7 day) of 64.6 IU/L and a BUN ([…], time 7 day) of 16.8 mg/dL. For the same compound, the CRE ([…], time 7 day) was 0.4 mg/dL, the Ca ([…], time 7 day) was 10.7 mg/dL and the Cl ([…], time 7 day) was 103.4 meq/L. It also gave a DBIL ([…], time 7 day) of 0.092 mg/dL, a GLC ([…], time 7 day) of 233.6 mg/dL and an IP ([…], time 7 day) of 7.5 mg/dL. For the same compound, the K ([…], time 7 day) was 3.5 meq/L, the LDH ([…], time 7 day) was 218.6 IU/L and the Na ([…], time 7 day) was 140.8 meq/L. For the same compound, the PL ([…], time 7 day) was 160.4 mg/dL, the RALB ([…], time 7 day) was 3.4 g/dL and the TBIL ([…], time 7 day) was 0.1 mg/dL. For the same compound, the TC ([…], time 7 day) was 78.8 mg/dL, the TG ([…], time 7 day) was 99.8 mg/dL and the TP ([…], time 7 day) was 5.9 g/dL. The gamma-GTP ([…], time 7 day) was 1.2 IU/L, the A/G ([…], time 14 day) was 1.3 and the ALP ([…], time 14 day) was 900.6 IU/L. For the same compound, the ALT ([…], time 14 day) was 43.4 IU/L, the AST ([…], time 14 day) was 76.6 IU/L and the BUN ([…], time 14 day) was 18.6 mg/dL. It also gave a CRE ([…], time 14 day) of 0.5 mg/dL, a Ca ([…], time 14 day) of 10.6 mg/dL and a Cl ([…], time 14 day) of 103.4 meq/L. The DBIL ([…], time 14 day) was 0.1 mg/dL, the GLC ([…], time 14 day) was 189.8 mg/dL and the IP ([…], time 14 day) was 6.4 mg/dL. It also gave a K ([…], time 14 day) of 3.8 meq/L, an LDH ([…], time 14 day) of 292 IU/L and a Na ([…], time 14 day) of 140.4 meq/L. For the same compound, the PL ([…], time 14 day) was 155 mg/dL, the RALB ([…], time 14 day) was 3.3 g/dL and the TBIL ([…], time 14 day) was 0.2 mg/dL. The TC ([…], time 14 day) was 63.2 mg/dL, the TG ([…], time 14 day) was 175.8 mg/dL and the TP ([…], time 14 day) was 6 g/dL. It also gave a gamma-GTP ([…], time 14 day) of 1.2 IU/L, an A/G ([…], time 28 day) of 1.3 and an ALP ([…], time 28 day) of 718.2 IU/L. The ALT ([…], time 28 day) was 49.2 IU/L, the AST ([…], time 28 day) was 80.6 IU/L and the BUN ([…], time 28 day) was 17.8 mg/dL. The CRE ([…], time 28 day) was 0.5 mg/dL, the Ca ([…], time 28 day) was 10.3 mg/dL and the Cl ([…], time 28 day) was 103.6 meq/L. It also gave a DBIL ([…], time 28 day) of 0.1 mg/dL, a GLC ([…], time 28 day) of 217.6 mg/dL and an IP ([…], time 28 day) of 6.1 mg/dL. For the same compound, the K ([…], time 28 day) was 3.7 meq/L, the LDH ([…], time 28 day) was 287.2 IU/L and the Na ([…], time 28 day) was 141.2 meq/L. It also gave a PL ([…], time 28 day) of 148.4 mg/dL, an RALB ([…], time 28 day) of 3.4 g/dL and a TBIL ([…], time 28 day) of 0.2 mg/dL. For the same compound, the TC ([…], time 28 day) was 68.8 mg/dL, the TG ([…], time 28 day) was 151.4 mg/dL and the TP ([…], time 28 day) was 6.2 g/dL. The gamma-GTP ([…], time 28 day) was 0.8 IU/L.
